How the values were obtained:
[1] = system: active SFKs in MOLM-7 cells; test: immunofluorescence of phospho-SFK in adhesion sites; format: cell-based, human; conditions: MOLM-7 on fibronectin
Protocol: The cells were plated on fibronectin coated coverslips or glass bottom dishes, incubated for 60 minutes in CO2 incubator, fixed with 2% paraformaldehyde, permeabilized in 0.3% Triton/PBS and incubated with anti-phospho-SRC family primary antibody and a secondary antibody (Alexa Fluor 488 Goat Anti-Rabbit). F-actin was labeled with rhodamine phalloidin (Molecular Probes). Samples were analyzed using an Olympus Fluoview FV1000 confocal laser scanning microscope.
To support our hypothesis that SFKs may be involved in regulation of cell interaction with fibronectin, we studied the intracellular localization of active SFKs using the phospho-specific anti-SFK antibody. […] In JURL-MK1 cells, the active SFKs were found mainly in the contours of cell-surface contact areas and their localization to the sites of the closest contact was less evident due to different morphology (Figure 8B). […] As the main SFKs in JURL-MK1 and MOLM-7 were LYN and LYN+LCK, respectively, we also analyzed the intracellular localization of these individual kinases.
(PDF) Click here for additional data file.

[2] = system: JURL-MK1 cells on fibronectin; conditions: cited from earlier work
[3] = system: JURL-MK1 cells on fibronectin; test: kinetics of JURL-MK1 cell adhesivity to fibronectin (adherent cell fraction); format: cell-based, human
Excerpt: Supplementary file pone.0107367.s001.pdf: Figure S1 Kinetics of dasatinib-induced cell death and changes in cell adhesivity to fibronectin. […] Cell fraction in sub-G1 region of cell cycle phase distribution in samples stained with propidium iodide. […] (PDF) Click here for additional data file.

[4] = system: JURL-MK1 and MOLM-7 cells on fibronectin; test: real-time microimpedance, cell interaction with fibronectin, BCR-ABL-positive cells; format: cell-based, human; conditions: dasatinib 100 nM, clinically relevant dose
Protocol: RTCA xCELLigence DP system (Acea Biosciences, San Diego, CA, U.S.A.) was placed in an incubator (at 37°C) with 5% CO2 content. […] The microimpedance signal (cell index) was set to zero in these conditions. […] DMSO (0.1%) was also added to control wells.
Cells were seeded into E-plates and incubated for 1–2 h to allow for cell attachment to the coated cell bottom. After signal stabilization, the drug was added in a small drop while the corresponding solvent was added to control wells as any mechanical perturbation usually produced minor changes, too.
The cells (6×10^4 per well) were seeded into fibronectin-coated E-plates. After the microimpedance signal stabilization, the appropriate inhibitor was added in triplets. […] Microimpedance signal (cell index) was normalized to 1 at the time of inhibitor addition.

[5] = system: HEL and JURKAT cells on fibronectin; test: real-time microimpedance, cell interaction with fibronectin, BCR-ABL-negative cells; format: cell-based, human; conditions: low-dose (several nM) dasatinib
Excerpt: (§1) (PPTX) Click here for additional data file.
as §1

[6] = system: JURL-MK1 and MOLM-7 cells; test: apoptosis onset: caspase activation (Ac-DEVD-AFC), Annexin V staining; format: cell-based, human
[7] = system: JURL-MK1 and MOLM-7 cells on fibronectin; test: end-point adherent cell fraction on fibronectin-coated wells
Protocol: Briefly, the cells (1×10^4) were seeded into fibronectin-coated wells on a microtitration plate and incubated for 1 h at 37°C. Then, the cells were washed wih PBS/Ca^2+/Mg^2+ and the remaining cells were quantified by means of fluorescent labelling (CyQuant Cell Proliferation Assay Kit; Molecular Probes). The adherent cell fraction (ACF) was calculated using the fluorescence signal from fibronectin-coated plate and the signal obtained from a reference plate that contained the total cell number.

## CC(C)(C)n1nc(-c2ccc(Cl)cc2)c2c(N)ncnc21 [PP2]
[1]; 10 µM PP2, 30 min
  phospho-SFK fluorescent signal at adhesion sites: The same effect was also reached
[2]; PP2, recently reported by the authors
  effect on JURL-MK1 cell adhesivity to FN: increases JURL-MK1 cell adhesivity to FN

## CC(C)[C@H](NC(=O)c1ccc2ccccc2n1)C(=O)N[C@@H](CC(=O)O)C(=O)COc1c(F)cccc1F [Q-VD-OPh]
[3]; 10 µM Q-VD-OPh added together with 2 nM dasatinib, 24 h
  effect on the dasatinib-induced decrease of cell adhesivity to fibronectin: This decrease was prevented

## Cc1nc(Nc2ncc(C(=O)Nc3c(C)cccc3Cl)s2)cc(N2CCN(CCO)CC2)n1 [dasatinib]
[4]
  effect on CML cell binding to fibronectin: almost no effect
[5]
  change of cell binding to fibronectin: no significant change
[1]; 100 nM dasatinib, 30 min
  phospho-SFK fluorescent signal at adhesion sites: complete disappearance of the green fluorescent signal from adhesion sites
[6]; 10 nM dasatinib, 6 h, JURL-MK1 and MOLM-7
  number of early apoptotic cells, Annexin V staining: no significant increase in the number of early apoptotic cells
[6]; dasatinib 10 nM
  time of treatment at which caspases became activated: about 6 h
[3]; dasatinib 2 nM
  cell adhesivity to fibronectin after 24 h treatment: cell adhesivity to fibronectin lowered
[7]; dasatinib 1 to 10 nM, JURL-MK1 and MOLM-7
  change in number of cells attached to fibronectin: mild increase in the number of attached cells
[7]; dasatinib at therapeutic concentrations (100 nM)
  change in CML cell binding to fibronectin: does not enhance CML cell binding to fibronectin

## Cc1ccc(NC(=O)c2ccc(CN3CCN(C)CC3)cc2)cc1Nc1nccc(-c2cccnc2)n1 [imatinib]
[2]; imatinib, first several hours of treatment, JURL-MK1
  cell fraction adhering to FN: the cell fraction adhering to FN increased
